Reference: article doi:[…]/2021.10.07.463234v2 (biorxiv, 2021)
Structures can show the parent of a compound that is named as a salt. Numbered stars: 1 amine (or outer) side, 2 acyl side, 3 side chain; on linkers, the order of the positions; unused ones are H or OH. Bridge positions count the residues as written; N and C are the ends. Square brackets hold non-standard residues; d marks the D form. Peptide text beside a SMILES is read from it. * marks the point of attachment. pTerphenylCO(4''-OnC5H11) = CCCCCOc1ccc(-c2ccc(-c3ccc(C(=O)*)cc3)cc2)cc1; Orn(4R-OH,5R-OH) = O=C([C@H](C[C@@H](O)[C@@H](O)N[*:3])N[*:1])[*:2]; hTyr(3S-OH,4S-OH) = N[C@H](C(=O)O)[C@H](O)[C@@H](O)c1ccc(O)cc1; Pro(3S-OH,4S-Me) = C[C@H]1CN[C@H](C(=O)O)[C@H]1O; Hyp = O=C(O)[C@@H]1C[C@@H](O)CN1

Target: SARS-CoV-2 Mac1 (Severe acute respiratory syndrome coronavirus 2, UniProt P0DTD1)
Assay: biochemical
Conditions: for inhibition at 100 µM: read-out: %inhibition; for %inhibition: 100 µM, inhibitor

SMILES | inhibition at 100 µM [%] | %inhibition [%]
CCCCCOc1ccc(-c2ccc(-c3ccc(C(=O)N[C@H]4C[C@@H](O)[C@@H](O)NC(=O)[C@@H]5[C@@H](O)[C@@H](C)CN5C(=O)[C@H]([C@@H](C)O)NC(=O)[C@H]([C@H](O)[C@@H](O)c5ccc(O)cc5)NC(=O)[C@@H]5C[C@@H](O)CN5C(=O)[C@H]([C@@H](C)O)NC4=O)cc3)cc2)cc1 [Anidulafungin (LY303366)] ({pTerphenylCO(4''-OnC5H11)}-[Orn(4R-OH,5R-OH)]T[Hyp][hTyr(3S-OH,4S-OH)]T[Pro(3S-OH,4S-Me)]; lactam 1-C) | 6.34 | –
COc1ccc(C(=O)N2CCCC2=O)cc1 [Aniracetam] | 0 | –
COc1ccc(C2C(=O)c3ccccc3C2=O)cc1 [Anisindione] | 2.26 | –
CCCC(CCC)C(=O)O[C@H]1C[C@H]2CC[C@@H](C1)[N+]2(C)C [Anisotropine Methylbromide] | 5.8 | –
Cc1cc(=O)n(-c2ccccc2)n1C [Antipyrine] | 8.75 | –
N#CC1(c2ccc(NC(=O)c3cccnc3NCc3ccncc3)cc2)CCCC1 [Apatinib?mesylate] | 0 | –
COc1ccc(-n2nc(C(N)=O)c3c2C(=O)N(c2ccc(N4CCCCC4=O)cc2)CC3)cc1 [Apixaban] | 0 | –
CCOc1cc([C@@H](CS(C)(=O)=O)N2C(=O)c3cccc(NC(C)=O)c3C2=O)ccc1OC [Apremilast (CC-10004)] | 0 | –
C[C@@H](O[C@H]1OCCN(Cc2n[nH]c(=O)[nH]2)[C@H]1c1ccc(F)cc1)c1cc(C(F)(F)F)cc(C(F)(F)F)c1 [Aprepitant] | 10.1 | –
COC(=O)C1=CCCN(C)C1 [Arecoline HBr] | 3.01 | –
COc1ccc(C[C@@H](C)NC[C@H](O)c2ccc(O)c(NC=O)c2)cc1 [Arformoterol Tartrate] | – | 8.751
CC1CNc2c(cccc2S(=O)(=O)N[C@@H](CCCNC(=N)N)C(=O)N2CC[C@@H](C)C[C@@H]2C(=O)O)C1 (some centres unmarked) [Argatroban Monohydrate] | – | 0
CC1CNc2c(cccc2S(=O)(=O)N[C@@H](CCCNC(=N)N)C(=O)N2CC[C@@H](C)C[C@@H]2C(=O)O)C1 (some centres unmarked) [Argatroban] | – | 4.667
CO[C@H]1O[C@@H]2O[C@@]3(C)CC[C@H]4[C@H](C)CC[C@@H]([C@H]1C)[C@@]24OO3 [Artemether] | 0 | –
C[C@@H]1CC[C@H]2[C@@H](C)C(=O)O[C@@H]3O[C@@]4(C)CC[C@@H]1[C@]32OO4 [Artemisinin] | 10.9 | –
C[C@H]1[C@H](OC(=O)CCC(=O)O)O[C@@H]2O[C@@]3(C)CC[C@H]4[C@H](C)CC[C@@H]1[C@@]24OO3 [Artesunate] | 0 | –
CCCNC(C)C(=O)Nc1c(C)csc1C(=O)OC (centres unmarked) [Articaine HCl] | 0 | –
COC(=O)[C@H](Cc1ccccc1)NC(=O)[C@@H](N)CC(=O)O [Aspartame] (H-Asp-Phe-OMe) | 0 | –
CC(=O)Oc1ccccc1C(=O)O [Aspirin] | – | 26.28
C=C[C@@H]1C[C@]1(NC(=O)[C@@H]1C[C@@H](Oc2ncc(OC)c3ccc(Cl)cc23)CN1C(=O)[C@@H](NC(=O)OC(C)(C)C)C(C)(C)C)C(=O)NS(=O)(=O)C1CC1 [Asunaprevir] | 0 | –
COC(=O)N[C@H](C(=O)N[C@@H](Cc1ccccc1)[C@@H](O)CN(Cc1ccc(-c2ccccn2)cc1)NC(=O)[C@@H](NC(=O)OC)C(C)(C)C)C(C)(C)C [Atazanavir Sulfate] | 0 | –
CC(C)NCC(O)COc1ccc(CC(N)=O)cc1 (centres unmarked) [Atenolol] | 0 | –
CCC1(c2c[nH]cn2)Cc2ccccc2C1 [Atipamezole hydrochloride] | 0 | –
CNCC[C@@H](Oc1ccccc1C)c1ccccc1 [Atomoxetine HCl] | 0 | –

SMILES | inhibition at 100 µM [%] | %inhibition [%]
CC(C)c1c(C(=O)Nc2ccccc2)c(-c2ccccc2)c(-c2ccc(F)cc2)n1CC[C@@H](O)C[C@@H](O)CC(=O)O [Atorvastatin Calcium] | 0 | –
O=C1C(O)=C([C@H]2CC[C@H](c3ccc(Cl)cc3)CC2)C(=O)c2ccccc21 [Atovaquone] | 23.4 | –
COc1ccc(C[C@@H]2c3cc(OC)c(OC)cc3CC[N@+]2(C)CCC(=O)OCCCCCOC(=O)CC[N@@+]2(C)CCc3cc(OC)c(OC)cc3[C@H]2Cc2ccc(OC)c(OC)c2)cc1OC [Atracurium Besylate] | – | 4.976
NC(=O)[C@@H](CCC(F)(F)F)N(Cc1ccc(-c2ncon2)cc1F)S(=O)(=O)c1ccc(Cl)cc1 [Avagacestat (BMS-708163)] | 0 | –
COc1ccc(CNc2nc(N3CCC[C@H]3CO)ncc2C(=O)NCc2ncccn2)cc1Cl [Avanafil] | 0 | –
NC(=O)[C@@H]1CC[C@@H]2CN1C(=O)N2OS(=O)(=O)O [Avibactam sodium] | 0 | –
COc1ccc(C(=O)CC(=O)c2ccc(C(C)(C)C)cc2)cc1 [Avobenzone] | 26.5 | –
CNC(=O)c1ccccc1Sc1ccc2c(/C=C/c3ccccn3)n[nH]c2c1 [Axitinib] | 59.3 | –
Nc1ncn([C@@H]2O[C@H](CO)[C@@H](O)[C@H]2O)c(=O)n1 [Azacitidine] | 32.2 | –
OC(c1ccccc1)(c1ccccc1)C1CCNCC1 [Azacyclonol] | 0 | –
O=C(CCCN1CCN(c2ccccn2)CC1)c1ccc(F)cc1 [Azaperone] | 22.5 | –
CN1C(=O)COc2c(C(=O)NC3CN4CCC3CC4)cc(Cl)cc21 (centres unmarked) [Azasetron HCl] | 0 | –
CN1CCC(=C2c3ccccc3CCc3cccnc32)CC1 [Azatadine dimaleate] | 0 | –
Cn1cnc([N+](=O)[O-])c1Sc1ncnc2[nH]cnc12 [Azathioprine] | 18.9 | –
O=C(O)CCCCCCCC(=O)O [Azelaic acid] | 0 | –
CN1CCCC(n2nc(Cc3ccc(Cl)cc3)c3ccccc3c2=O)CC1 (centres unmarked) [Azelastine HCl] | 20.2 | –
CC1=C(C(=O)OC(C)C)C(c2cccc([N+](=O)[O-])c2)C(C(=O)OC2CN(C(c3ccccc3)c3ccccc3)C2)=C(N)N1 (centres unmarked) [Azelnidipine] | 12.9 | –
CCOc1nc2cccc(C(=O)OCc3oc(=O)oc3C)c2n1Cc1ccc(-c2ccccc2-c2noc(=O)[nH]2)cc1 [Azilsartan Medoxomil] | 9.53 | –
CCOc1nc2cccc(C(=O)O)c2n1Cc1ccc(-c2ccccc2-c2noc(=O)[nH]2)cc1 [Azilsartan] | 16.1 | –
CC[C@H]1OC(=O)[C@H](C)[C@@H](O[C@H]2C[C@@](C)(OC)[C@@H](O)[C@H](C)O2)[C@H](C)[C@@H](O[C@@H]2O[C@H](C)C[C@H](N(C)C)[C@H]2O)[C@](C)(O)C[C@@H](C)CN(C)[C@H](C)[C@@H](O)[C@]1(C)O [Azithromycin Dihydrate] | – | 2.079
CC[C@H]1OC(=O)[C@H](C)[C@@H](O[C@H]2C[C@@](C)(OC)[C@@H](O)[C@H](C)O2)[C@H](C)[C@@H](O[C@@H]2O[C@H](C)C[C@H](N(C)C)[C@H]2O)[C@](C)(O)C[C@@H](C)CN(C)[C@H](C)[C@@H](O)[C@]1(C)O [Azithromycin] | – | 5.483
CC1(C)S[C@@H]2[C@H](NC(=O)[C@H](NC(=O)N3CCNC3=O)c3ccccc3)C(=O)N2[C@H]1C(=O)O [Azlocillin sodium salt] | 0 | –
C[C@H]1[C@H](NC(=O)/C(=N\OC(C)(C)C(=O)O)c2csc(N)n2)C(=O)N1S(=O)(=O)O [Aztreonam] | 11.7 | –
